Test results from US20250268830A1, “SUSTAINED RELEASE INJECTABLE PHARMACEUTICAL FORMULATION OF LEVOTHYROXINE AND PROCESS FOR PREPARATION THEREOF” (PHARMATHEN S.A., priority 2021, published 2025).

How the values were obtained:
[1] = solubility of the API in MeOH; type: physicochemical; conditions: 20° C.
Experimental: The solubility at 20° C. of the API in MeOH was determined as follows: approximately 50 mg Levothyroxine sodium were weighed in a vial. Methanol was gradually added until the solution became clear.

[2] = LVX solubility in DCM/MeOH 10/3 with PLGA (evaluation of maximum theoretical drug loading); type: physicochemical
Experimental: A quantity of approximately 0.25 g of polymer and varying quantities of LVX corresponding to theoretical drug loading values 1%, 2%, 3% and 4% were weighed in four vials. A DCM/MeOH mixture at a ratio of 10/3 (to ensure the polymer is always dissolved) was gradually added in each vial. The respective PLGA (PURASORB PDLG 5002A) concentrations, % LVX content and LVX solubility were evaluated and are presented in the table below.

N[C@@H](Cc1cc(I)c(Oc2cc(I)c(O)c(I)c2)c(I)c1)C(=O)O [Levothyroxine sodium]
solubility in MeOH [1]: 3.41 % mass LVX/mass of MeOH
ratio LVX/(DCM+MeOH) at which levothyroxine is dissolved ([2]; DCM/MeOH 10/3 with PLGA): below 0.1%
LVX Solubility ([2]; Vial 1, 1.0% TDL, DCM+MeOH 2.5 g, 0.11% LVX in mix, 13.01% PLGA in DCM): Insoluble
LVX Solubility ([2]; Vial 1, 1.0% TDL, DCM+MeOH 3.3 g, 0.08% LVX in mix, 9.99% PLGA in DCM): Almost Clear
LVX Solubility ([2]; Vial 1, 1.0% TDL, DCM+MeOH 4.3 g, 0.06% LVX in mix, 7.63% PLGA in DCM): Clear
LVX Solubility ([2]; Vial 1, 1.0% TDL, DCM+MeOH 5.5 g, 0.05% LVX in mix, 5.92% PLGA in DCM): Clear
LVX Solubility ([2]; Vial 2, 2.0% TDL, DCM+MeOH 2.6 g, 0.20% LVX in mix, 12.58% PLGA in DCM): Slurry
LVX Solubility ([2]; Vial 2, 2.0% TDL, DCM+MeOH 3.3 g, 0.16% LVX in mix, 10.05% PLGA in DCM): Sluny
LVX Solubility ([2]; Vial 2, 2.0% TDL, DCM+MeOH 4.3 g, 0.12% LVX in mix, 7.69% PLGA in DCM): Less Slurry
LVX Solubility ([2]; Vial 2, 2.0% TDL, DCM+MeOH 5.6 g, 0.09% LVX in mix, 5.92% PLGA in DCM): Almost Clear
LVX Solubility ([2]; Vial 3, 3.0% TDL, DCM+MeOH 2.6 g, 0.30% LVX in mix, 12.69% PLGA in DCM): Shary
LVX Solubility ([2]; Vial 3, 3.0% TDL, DCM+MeOH 3.3 g, 0.24% LVX in mix, 9.97% PLGA in DCM): Slurry
LVX Solubility ([2]; Vial 3, 3.0% TDL, DCM+MeOH 4.2 g, 0.18% LVX in mix, 7.70% PLGA in DCM): Less Shury
LVX Solubility ([2]; Vial 3, 3.0% TDL, DCM+MeOH 5.5 g, 0.14% LVX in mix, 5.95% PLGA in DCM): Less Slurry
LVX Solubility ([2]; Vial 3, 3.0% TDL, DCM+MeOH 7.7 g, 0.10% LVX in mix, 4.25% PLGA in DCM): Almost Clear
LVX Solubility ([2]; Vial 3, 3.0% TDL, DCM+MeOH 9.6 g, 0.08% LVX in mix, 3.39% PLGA in DCM): Almost Clear
LVX Solubility ([2]; Vial 3, 3.0% TDL, DCM+MeOH 12.3 g, 0.06% LVX in mix, 2.65% PLGA in DCM): Clear
LVX Solubility ([2]; Vial 4, 4.0% TDL, DCM+MeOH 2.6 g, 0.39% LVX in mix, 12.33% PLGA in DCM): Slurry
LVX Solubility ([2]; Vial 4, 4.0% TDL, DCM+MeOH 3.3 g, 0.31% LVX in mix, 9.82% PLGA in DCM): Shary
LVX Solubility ([2]; Vial 4, 4.0% TDL, DCM+MeOH 4.3 g, 0.24% LVX in mix, 7.56% PLGA in DCM): Slurry
LVX Solubility ([2]; Vial 4, 4.0% TDL, DCM+MeOH 5.6 g, 0.19% LVX in mix, 5.87% PLGA in DCM): Less Slurry
